# Data taken from patent US7781423B2, “Compounds to promote regeneration of bone marrow” (priority 2007, dated 2010).
# Read-outs that look alike come from different tables or passages of the source.
# What was measured:
# healthy mice [1] = assay: Toxicity in healthy mice; type: in vivo; conditions: for well tolerated maximal dose: mice weighing about 25 g
# Protocol: Accordingly, a well tolerated maximal dose for CCompound1 or CCompound3 in mice (weighing about 25 g) is […] which corresponds to a dose of 4.6 mg/kg. Therapeutically effective concentrations of CC compounds in humans will exert significant promoting effects on bone marrow regeneration without causing toxicity in other normal healthy tissues.
# MXT mammary tumor = type: in vivo; conditions: for effect on body weight: MXT tumor-bearing, CP-treated mice, by day 22; for Total weight / Tumor weight / Body weight: CP 120-mg/kg i.p. x8 daily from day 6, CC compounds s.c. with each CP (1 and 3: 4.5-mg/kg, 26: 2.0-mg/kg); for Body weight: total minus tumor weight
# Protocol: This experiment was designed to determine whether in a tumor model CC compounds could prevent cyclophosphamide-induced loss of body weight resulting from the depression of blood marrow function. Specified pathogen free (SPF) hygienic category colonies of first generation hybrid BDF1 (C57B1 female×DBA/2 male) adult female mice, weighing 23-24 g, were used. The animals were kept in macrolon cages at 22-24° C. (45-55% humidity), with a lighting regimen of 12/12 h light/dark. […] The animals used in these studies were cared for according to the “Guiding Principles for the Care and Use of Animals” based upon the Helsinki declaration.
# MXT mammary tumor pieces (containing about 10^6 tumor cells) were implanted subcutaneously to develop the tumors. After six days when the tumor-bearing mice were first treated, the sizes of the tumors were in the 0.26-0.30 cm^3 range. All compounds used were dissolved in 0.9% sodium chloride and applied subcutaneously (CC compounds) or intraperitoneally (CP) in 50 μl volume. Tumor volume was determined by using calipers in three dimensions; this technique is well known to one having ordinary skill in the art. Tumor volume was calculated according to the generally accepted formula: V=a^2×b×π/6, where “a” and “b” mean the shortest and longest diameter, respectively, of the measured tumor.
# In the first group, animals received no treatment. In the second group, mice were administered 120-mg/kg of CP on day 6 followed by seven consecutive daily treatments with the same dose. In the third group, each treatment with CP was associated with administration of 4.5-mg/kg of CCompound1. In the fourth group, each treatment with CP was associated with administration of 4.5-mg/kg of CCompound3. In the fifth group, each treatment with CP was associated with administration of 2.0-mg/kg of CCompound26. Each group included 7 mice. All data represent the average of 7 determinations (one determination with each mouse in the group).
# healthy mice [2] = assay: Toxicity in healthy mice; type: in vivo; conditions: 1,000-1,500 μmole doses
# [3] = test system: cyclophosphamide-treated mice; assay: Blood profile in cyclophosphamide-treated mice; type: in vivo, C57B1 mice; conditions: for effect on blood profile (WBC, PTL): cyclophosphamide-treated mice, CCompound26 at a smaller dose than the two others
# Protocol: Twelve week old female C57B1 mice were used for the experiments. Each drug was administered intraperitoneally once a day for 5 consecutive days. In the second, third, fourth and fifth groups, mice were administered 120 mg/kg of cyclophosphamide (CP). In a third group, mice were also administered 4.5 mg/kg of CCompound1. In a fourth group, mice were also administered 4.5 mg/kg of CCompound3. In a fifth group, mice were also administered 2.0 mg/kg of CCompound26. In the first group, mice received no treatment. Each group included 5 animals. After 3 hours of the last treatments (on day 5), blood samples were collected from the ocular venous plexus of ether-anesthetized mice by retro-orbital venipuncture in heparanized tubes. Complete cell counts (RBC, red blood cell; WBC, white blood cell; PTL, platelet) were determined with a Sysmex F-800 hematology analyzer (To a Medical Electronics Co. LTD, Kobe, Japan). All data shown in Table 2 are the average of 5 independent determinations.
# human cancer patients = conditions: following stem cell transplantation; cited from earlier work
# [4] = single 450 μmole (about 4.6 mg/kg) or daily 400 μmole for 5 consecutive days
# [5] = day 6 after tumor transplantation (first treatment day)
# [6] = day 8 after tumor transplantation
# [7] = day 11 after tumor transplantation
# [8] = day 15 after tumor transplantation
# [9] = day 18 after tumor transplantation
# [10] = day 22 after tumor transplantation
# [11] = i.p. once a day for 5 days, CP 120 mg/kg, CCompound1, 3: 4.5 mg/kg, CCompound26: 2.0 mg/kg, blood 3 hours after last treatment (day 5), 5 animals
molecule,measurement,setting,value
CC[N+](C)(CC)CCOCc1ccc2sc3ccccc3c(=O)c2c1.[I-] [CCcompound3],well tolerated maximal dose,healthy mice [1],450 μmole/animal
same,well tolerated maximal dose,healthy mice [1]; corresponds to 450 μmole/animal,4.6 mg/kg
same,change in the composition of various blood constituents,healthy mice [1]; [4],did not cause any significant change
same,"pathological alterations in the liver, brain, kidney, heart, spleen, intestine, and lung",healthy mice [1]; [4],did not induce significant pathological alterations
same,solubility in water,Solubility in water,soluble in water
same,effect on body weight,MXT mammary tumor,body weight gain
same,tissue alterations at high doses,healthy mice [2],"mild parenchymal degeneration in the heart, focal hypostasis and chronic bronchopneumonia"
"C=CC[N+](CC)(CC)CC/C=C1/c2ccccc2Sc2ccc(C)cc21.[Br-] [CCcompound26, N,N-Diethyl-N-allyl-3-(2-methyl-9H-thioxanthen-9-ylidene)-propane-1-aminium bromide]",solubility in water,Solubility in water,water-soluble
same,toxic effects at the effective dose,"MXT mammary tumor; 2.0 mg/kg, inferred from prevented body weight loss",does not exert significant toxic effects
same,effect on body weight,MXT mammary tumor,prevented body weight loss
same,effect on cyclophosphamide-induced decrease in white blood cell and platelet counts,[3]; 2.0 mg/kg,partially reversed
same,"effect on blood profile (WBC, PTL)",[3],least effective
"O=P1(N(CCCl)CCCl)NCCCO1 (centres unmarked) [CP, cyclophosphamide]",effect on tumor weight,MXT mammary tumor; MXT tumor model,effectively decreased tumor weight
same,effect on body weight,MXT mammary tumor,lost significant amounts of weight
same,Total weight,MXT mammary tumor; [5],22.4 grams
same,Tumor weight,MXT mammary tumor; [5],0.2 grams
same,Body weight,MXT mammary tumor; [5],22.2 grams
same,Total weight,MXT mammary tumor; [6],21.8 grams
same,Tumor weight,MXT mammary tumor; [6],0.2 grams
same,Body weight,MXT mammary tumor; [6],21.6 grams
same,Total weight,MXT mammary tumor; [7],20.2 grams
same,Tumor weight,MXT mammary tumor; [7],0.1 grams
same,Body weight,MXT mammary tumor; [7],20.1 grams
same,Total weight,MXT mammary tumor; [8],19.9 grams
same,Tumor weight,MXT mammary tumor; [8],0.2 grams
same,Body weight,MXT mammary tumor; [8],19.7 grams
same,Total weight,MXT mammary tumor; [9],18.8 grams
same,Tumor weight,MXT mammary tumor; [9],0.1 grams
same,Body weight,MXT mammary tumor; [9],18.7 grams
same,Total weight,MXT mammary tumor; [10],18.1 grams
same,Tumor weight,MXT mammary tumor; [10],0.1 grams
same,Body weight,MXT mammary tumor; [10],18.0 grams
same,"effect on blood profile (WBC, PTL)",[3],decreases both WBC and PTL numbers
same,PTL,[3]; [11],404 ± 55 ×10^3/μl
same,RBC,[3]; [11],8.1 ± 0.9 ×10^6/μl
same,WBC,[3]; [11],3.2 ± 0.7 ×10^6/μl
"granulocyte-colony stimulating factor (protein, UniProt P09919 31-207, looked up, cytokine that can reduce the duration and severity of cyclophosphamide-induced neutropenia) Granulocyte …: TPLGPASSLPQSFLLKCLEQVRKIQGDGAALQEKLVSECATYKLCHPEELVLLGHSLGIPWAPLSSCPSQALQLAGCLSQLHSGLFLYQGLLQALEGISPELGPTLDTLQLDVADFATTIWQQMEELGMAPALQPTQGAMPAFASAFQRRAGGVLVASHLQSFLEVSYRVLRHLAQP","time to recover the platelet count to about 100,000 per 1 μl",human cancer patients,about 14 days
same,"time to recover the white blood cell count to 2,500 per 1 μl (mm^3)",human cancer patients,about 10 days
